Where a chain is given by its changes, count along the chain named. Entries after “also recorded” stand apart in the source; their conditions may differ. Where two headings read alike, the source gives them in different places.
What was measured:
[1] = target: T1, SlitOBP1 Glu98 (glutamic to alanine) (Spodoptera litura, UniProt A1Z1R1, E117A); assay: Fluorescence binding assay with 1-NPN, mutant SlitOBP1 Glu98
T1 sequence (A1Z1R1 20-164 E117A): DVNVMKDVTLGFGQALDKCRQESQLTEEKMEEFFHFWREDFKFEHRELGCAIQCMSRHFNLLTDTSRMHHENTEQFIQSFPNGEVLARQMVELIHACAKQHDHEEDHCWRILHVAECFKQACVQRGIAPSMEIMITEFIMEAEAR

[2] = target: T2, SlitOBP1 Ile52 (isoleucine to alanine) (Spodoptera litura, UniProt A1Z1R1, I71A); assay: Fluorescence binding assay with 1-NPN, mutant SlitOBP1 Ile52
T2 sequence (A1Z1R1 20-164 I71A): T1 sequence (A1Z1R1 20-164 E117A) with I52A, A98E

SlitOBP1 = target: T3, SlitOBP1 (Spodoptera litura, UniProt A1Z1R1); assay: Fluorescence competitive binding assay with 1-NPN, recombinant SlitOBP1; conditions: for binding to SlitOBP1 in the competitive fluorescence binding assay, in words: wild-type SlitOBP1, displacement of 1-NPN
T3 sequence (A1Z1R1 20-164): T1 sequence (A1Z1R1 20-164 E117A) with A98E

[3] = target: T4, SlitOBP1 Thr9 (threonine to alanine) (Spodoptera litura, UniProt A1Z1R1, T28A); assay: Fluorescence binding assay with 1-NPN, mutant SlitOBP1 Thr9
T4 sequence (A1Z1R1 20-164 T28A): T1 sequence (A1Z1R1 20-164 E117A) with T9A, A98E

[4] = target: T5, SlitOBP1 Phe12 (phenylalanine to alanine) (Spodoptera litura, UniProt A1Z1R1, F31A); assay: Fluorescence binding assay with 1-NPN, mutant SlitOBP1 Phe12
T5 sequence (A1Z1R1 20-164 F31A): T1 sequence (A1Z1R1 20-164 E117A) with F12A, A98E

[5] = target: T6, SlitOBP1 Trp37 (tryptophan to alanine) (Spodoptera litura, UniProt A1Z1R1, W56A); assay: Fluorescence binding assay with 1-NPN, mutant SlitOBP1 Trp37
T6 sequence (A1Z1R1 20-164 W56A): T1 sequence (A1Z1R1 20-164 E117A) with W37A, A98E

[6] = 2 μM SlitOBP1, 2 μM 1-NPN, ligand 0-20 μM, unit inferred

SMILES	Ki (SlitOBP1)	IC50 (SlitOBP1; [6])	binding to SlitOBP1 in the competitive fluorescence binding assay, in words (SlitOBP1)	other results
c1ccc(Nc2cccc3ccccc23)cc1 [1-NPN, N-phenyl-1-naphthylamine, reference compound]				Kd [1]: 3.67 ± 0.25 µM; Kd [2]: 5.43 ± 0.31 µM; Kd (SlitOBP1): 3.24 ± 0.2 µM; Kd [3]: 4.21 ± 0.19 µM; Kd [4]: 6.78 ± 0.25 µM; Kd [5]: 4.54 ± 0.28 µM
CC(=O)[C@H]1CC[C@H]2[C@@H]3CC=C4C[C@@H](O)CC[C@]4(C)[C@H]3CC[C@]12C [145-13-1, Delta-5-pregnenolone]	9.13 µM	14.8 µM		
O=C(O)C(F)(F)C(F)(F)C(F)(F)C(F)(F)C(F)(F)C(F)(F)C(F)(F)C(F)(F)F [375-95-1, Perfluorononanoic acid]	3.76 µM	6.08 µM	high affinities; also recorded: could effectively displace 1-NPN	
O=C(O)C(F)(F)C(F)(F)C(F)(F)C(F)(F)C(F)(F)C(F)(F)C(F)(F)C(F)(F)Cl [865-79-2, 9-Chlorohexadecafluorononanoic acid]	3.73 µM		high affinities; also recorded: could effectively displace 1-NPN	IC50 (SlitOBP1): 6 µM
N#CC(F)(F)C(F)(F)C(F)(F)C(F)(F)C(F)(F)C(F)(F)C(F)(F)C(F)(F)C#N [2342-09-8, Perfluorosebaconitrile]			no binding potential	
NCCC(F)(F)C(F)(F)C(F)(F)C(F)(F)C(F)(F)C(F)(F)C(F)(F)C(F)(F)F [30670-30-5, 1H,1H,2H,2H-perfluorodecylamine]			no binding potential	
OCC(F)(F)C(F)(F)C(F)(F)C(F)(F)C(F)(F)C(F)(F)C(F)(F)CO [203303-01-9, 1H,1H,9H,9H-perfluoro-1,9-nonanediol]	5.84 µM	9.45 µM		

Second part, led by results:

Ki (SlitOBP1)	IC50 (SlitOBP1; [6])	SMILES	binding to SlitOBP1 in the competitive fluorescence binding assay, in words (SlitOBP1)	other results
3.1 µM	5.02 µM	C[C@]12C=CC(=O)C=C1CC[C@@H]1[C@@H]2[C@@H](O)C[C@@]2(C)[C@H]1CC[C@]2(O)C(=O)CO [50-24-8, 11β,17α,21-trihydroxypregna-1,4-diene-3,20-dione, reference compound]	high affinities; also recorded: could effectively displace 1-NPN	
3.09 µM	5 µM	C[C@]12C=CC(=O)C=C1CC[C@@H]1[C@@H]2C(=O)C[C@@]2(C)[C@H]1CC[C@]2(O)C(=O)CO [53-03-2, 1,2-Dehydrocortisone, reference compound]	high affinities; also recorded: could effectively displace 1-NPN	
3.69 µM	5.97 µM	OCCC(F)(F)C(F)(F)C(F)(F)C(F)(F)C(F)(F)C(F)(F)C(F)(F)C(F)(F)F [678-39-7, 1H,1H,2H,2H-perfluoro-1-decanol]		binding to the mutant compared with the wild type, in words ([5]; mutant Trp37): better binding activities
4.13 µM	6.68 µM	OCC(F)(F)C(F)(F)C(F)(F)C(F)(F)C(F)(F)C(F)(F)C(F)(F)C(F)(F)CO [754-96-1, 1H,1H,10H,10H-perfluoro-1,10-decanediol]		
5.12 µM	8.28 µM	CC(=O)[C@@]12O[C@@H]1C[C@H]1[C@@H]3CC=C4C[C@@H](O)CC[C@]4(C)[C@H]3CC[C@@]12C [974-23-2, 16,17-epoxypregnenolone]		
4.14 µM		CC(C)(C)OC(=O)C[C@H](NC(=O)OCc1ccccc1)C(=O)O [5545-52-8, N-Cbz-L-Aspartic acid 4-tert-butyl ester]		IC50 (SlitOBP1): 6.7 µM
3.78 µM	6.11 µM	NCC(=O)NC(Cc1ccc(O)cc1)C(=O)NCC(=O)O (stereo not drawn) [6099-08-7, H-Gly-Tyr-Gly-OH]		binding to the mutant compared with the wild type, in words ([1]; mutant Glu98): better binding activities; binding to the mutant compared with the wild type, in words ([3]; mutant Thr9): better binding activities
4.65 µM	7.52 µM	CC[C@H](C)[C@H](NC(=O)[C@@H](N)CCCCN)C(=O)O [20556-13-2, H-Lys-Ile-OH]		
4.44 µM	7.18 µM	NC(=O)[C@@H]1CCCN1C(=O)[C@H](Cc1cnc[nH]1)NC(=O)[C@@H]1CCC(=O)N1 [24305-27-9, Pyr-His-Pro-NH2]		
4.47 µM	7.23 µM	N[C@@H](Cc1ccc(O)cc1)C(=O)OCc1ccccc1 [42406-77-9, L-Tyrosine benzyl ester]		

From article PMC4278257 (International Journal of Biological Sciences, 2015)
